Assay results reported in ChEMBL document CHEMBL1201862, “PubChem BioAssay data set” (2004).
Calls of active or inactive are those of the source.

Assays:
[1] = target: T1, Carboxy-terminal domain RNA polymerase II polypeptide A small phosphatase 1 (Homo sapiens, UniProt Q9GZU7); test: inhibitors of CTDSP1, concentration-response testing, biochemical assay, absorbance-based, actives from ultra-high-throughput screening (AID 540297); assay type: functional
T1 sequence (Q9GZU7 whole entry): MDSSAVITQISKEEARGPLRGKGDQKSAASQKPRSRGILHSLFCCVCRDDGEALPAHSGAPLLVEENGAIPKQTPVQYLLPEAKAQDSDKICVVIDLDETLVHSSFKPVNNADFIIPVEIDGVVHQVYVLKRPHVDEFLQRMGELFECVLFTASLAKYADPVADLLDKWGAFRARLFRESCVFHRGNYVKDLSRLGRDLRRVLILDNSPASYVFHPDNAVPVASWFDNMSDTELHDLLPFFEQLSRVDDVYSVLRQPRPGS

[2] = target: T2, Tyrosine-protein phosphatase non-receptor type 11 (Homo sapiens, UniProt Q06124); test: SHP2 phosphatase inhibition, dose response, selectivity assay for STEP inhibitor project, biochemical (AID 602367); assay type: functional; settings: read-out: IC50_Mean
T2 sequence (Q06124 whole entry): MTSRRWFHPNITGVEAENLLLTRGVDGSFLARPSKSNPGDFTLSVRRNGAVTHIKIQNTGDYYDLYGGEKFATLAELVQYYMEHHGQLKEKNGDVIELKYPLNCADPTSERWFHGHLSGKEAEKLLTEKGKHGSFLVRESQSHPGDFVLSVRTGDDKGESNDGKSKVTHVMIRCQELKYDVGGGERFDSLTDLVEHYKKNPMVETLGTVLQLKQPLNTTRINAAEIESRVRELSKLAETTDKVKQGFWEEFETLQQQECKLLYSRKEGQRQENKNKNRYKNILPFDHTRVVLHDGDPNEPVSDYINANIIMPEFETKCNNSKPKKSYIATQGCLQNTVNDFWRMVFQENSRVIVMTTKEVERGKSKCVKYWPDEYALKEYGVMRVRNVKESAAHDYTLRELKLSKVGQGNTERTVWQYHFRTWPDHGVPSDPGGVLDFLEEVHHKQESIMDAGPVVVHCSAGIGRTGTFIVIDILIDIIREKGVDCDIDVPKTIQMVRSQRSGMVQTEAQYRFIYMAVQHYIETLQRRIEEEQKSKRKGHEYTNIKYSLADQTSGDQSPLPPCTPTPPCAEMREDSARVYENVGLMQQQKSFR

[3] = target: T3, Tyrosine-protein phosphatase non-receptor type 5 (Homo sapiens, UniProt P54829); test: STEP phosphatase inhibitors, confirmation, biochemical, fluorescence intensity, uHTS hits (AID 602372); assay type: functional; settings: read-out: IC50_Mean
T3 sequence (P54829 whole entry): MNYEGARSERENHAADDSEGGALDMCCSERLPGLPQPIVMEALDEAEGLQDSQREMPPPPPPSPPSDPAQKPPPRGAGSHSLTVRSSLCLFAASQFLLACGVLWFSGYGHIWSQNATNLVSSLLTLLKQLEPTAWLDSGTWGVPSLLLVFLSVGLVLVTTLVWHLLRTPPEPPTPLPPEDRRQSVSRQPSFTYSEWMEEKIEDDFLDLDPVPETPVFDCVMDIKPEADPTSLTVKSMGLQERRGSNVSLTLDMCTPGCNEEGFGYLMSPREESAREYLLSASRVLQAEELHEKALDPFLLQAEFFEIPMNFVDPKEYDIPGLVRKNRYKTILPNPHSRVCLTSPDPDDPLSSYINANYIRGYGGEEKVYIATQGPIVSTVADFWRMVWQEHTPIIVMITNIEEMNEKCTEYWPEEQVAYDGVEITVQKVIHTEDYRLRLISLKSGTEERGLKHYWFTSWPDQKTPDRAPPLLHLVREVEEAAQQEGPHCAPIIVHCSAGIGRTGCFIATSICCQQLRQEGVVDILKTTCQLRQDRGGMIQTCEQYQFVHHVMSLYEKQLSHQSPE

[4] = target: Dual specificity protein phosphatase 3 (Homo sapiens, UniProt P51452); test: VHR phosphatase inhibition, dose response, selectivity assay for STEP inhibitor project, biochemical (AID 602374); assay type: functional; settings: read-out: IC50_Mean
Dual specificity protein phosphatase 3, sequence (P51452 whole entry): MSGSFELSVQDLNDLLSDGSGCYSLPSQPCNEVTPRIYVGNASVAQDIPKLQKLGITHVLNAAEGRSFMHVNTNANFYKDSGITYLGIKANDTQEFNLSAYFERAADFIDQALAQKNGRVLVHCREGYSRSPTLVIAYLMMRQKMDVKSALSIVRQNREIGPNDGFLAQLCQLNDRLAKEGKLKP

[5] = target: T4, Tyrosine-protein phosphatase non-receptor type 22 (Homo sapiens, UniProt Q9Y2R2); test: PTPN22 phosphatase inhibition, dose response, selectivity assay for STEP inhibitor project, biochemical (AID 624241); assay type: functional
T4 sequence (Q9Y2R2 whole entry): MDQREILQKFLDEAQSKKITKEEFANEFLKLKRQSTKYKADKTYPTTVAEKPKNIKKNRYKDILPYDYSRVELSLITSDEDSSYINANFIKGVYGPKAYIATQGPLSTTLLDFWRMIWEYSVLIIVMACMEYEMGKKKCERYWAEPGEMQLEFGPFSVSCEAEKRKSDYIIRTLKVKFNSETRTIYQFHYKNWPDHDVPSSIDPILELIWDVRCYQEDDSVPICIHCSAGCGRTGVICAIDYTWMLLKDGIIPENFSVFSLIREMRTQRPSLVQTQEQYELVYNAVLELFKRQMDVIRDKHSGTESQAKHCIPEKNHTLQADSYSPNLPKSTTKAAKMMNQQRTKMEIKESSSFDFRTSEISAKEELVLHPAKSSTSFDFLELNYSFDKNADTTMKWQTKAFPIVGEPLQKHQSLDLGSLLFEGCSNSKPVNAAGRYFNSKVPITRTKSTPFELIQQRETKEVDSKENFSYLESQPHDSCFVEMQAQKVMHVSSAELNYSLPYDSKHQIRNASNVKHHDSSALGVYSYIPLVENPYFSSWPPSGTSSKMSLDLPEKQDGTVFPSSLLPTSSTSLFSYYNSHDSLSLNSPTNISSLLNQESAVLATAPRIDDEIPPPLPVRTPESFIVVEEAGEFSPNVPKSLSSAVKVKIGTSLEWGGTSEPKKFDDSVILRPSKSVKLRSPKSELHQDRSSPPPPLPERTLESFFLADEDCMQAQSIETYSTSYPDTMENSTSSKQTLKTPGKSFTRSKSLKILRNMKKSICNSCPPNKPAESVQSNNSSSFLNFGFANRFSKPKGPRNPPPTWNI

Leucine aminopeptidase = target: T5, Leucine aminopeptidase (Plasmodium falciparum 3D7, UniProt Q8IL11); test: P. falciparum M17LAP inhibitors, primary screen, biochemical, fluorogenic H-Leu-NHMec substrate, 1536-well (AID 1619); assay type: functional
T5 sequence (Q8IL11 whole entry): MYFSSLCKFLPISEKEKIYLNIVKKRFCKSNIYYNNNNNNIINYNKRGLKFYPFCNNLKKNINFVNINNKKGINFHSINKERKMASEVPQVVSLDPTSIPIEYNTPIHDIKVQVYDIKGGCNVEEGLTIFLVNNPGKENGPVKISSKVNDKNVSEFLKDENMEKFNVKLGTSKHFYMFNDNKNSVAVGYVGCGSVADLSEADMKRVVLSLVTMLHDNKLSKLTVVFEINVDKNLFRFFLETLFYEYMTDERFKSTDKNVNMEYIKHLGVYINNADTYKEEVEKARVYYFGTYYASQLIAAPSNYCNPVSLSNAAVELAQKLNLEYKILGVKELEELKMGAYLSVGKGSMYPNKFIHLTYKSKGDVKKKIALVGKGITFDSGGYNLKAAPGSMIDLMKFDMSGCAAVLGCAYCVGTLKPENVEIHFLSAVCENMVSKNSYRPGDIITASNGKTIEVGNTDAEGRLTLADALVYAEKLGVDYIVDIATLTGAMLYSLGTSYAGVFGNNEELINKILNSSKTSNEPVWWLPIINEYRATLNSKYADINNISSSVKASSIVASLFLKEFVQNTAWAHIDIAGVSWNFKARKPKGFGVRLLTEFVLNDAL

[6] = target: T6, RNA-binding protein pos-1 (Caenorhabditis elegans, UniProt G5EF15); test: inhibitors of POS-1/mex-3 RNA binding, dose response, biochemical, fluorescence polarization (AID 1964);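 note: purified POS-1 fused to maltose binding protein made in E. coli; potency of compounds blocking POS-1 binding to fluorescent RNA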
T6 sequence (G5EF15 whole entry): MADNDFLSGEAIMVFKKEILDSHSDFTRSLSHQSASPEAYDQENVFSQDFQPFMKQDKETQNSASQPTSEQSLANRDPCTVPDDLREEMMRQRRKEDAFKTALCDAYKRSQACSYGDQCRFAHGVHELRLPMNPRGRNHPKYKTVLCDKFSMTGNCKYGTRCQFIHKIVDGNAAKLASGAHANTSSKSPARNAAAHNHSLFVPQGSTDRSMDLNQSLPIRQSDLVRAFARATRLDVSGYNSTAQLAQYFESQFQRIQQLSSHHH

[7] = target: T7, Zinc finger protein mex-5 (Caenorhabditis elegans, UniProt Q9XUB2); test: MEX-5/TCR-2 RNA interaction inhibitors, dose response, biochemical, C. elegans, fluorescence polarization (AID 1960)
T7 sequence (Q9XUB2 whole entry): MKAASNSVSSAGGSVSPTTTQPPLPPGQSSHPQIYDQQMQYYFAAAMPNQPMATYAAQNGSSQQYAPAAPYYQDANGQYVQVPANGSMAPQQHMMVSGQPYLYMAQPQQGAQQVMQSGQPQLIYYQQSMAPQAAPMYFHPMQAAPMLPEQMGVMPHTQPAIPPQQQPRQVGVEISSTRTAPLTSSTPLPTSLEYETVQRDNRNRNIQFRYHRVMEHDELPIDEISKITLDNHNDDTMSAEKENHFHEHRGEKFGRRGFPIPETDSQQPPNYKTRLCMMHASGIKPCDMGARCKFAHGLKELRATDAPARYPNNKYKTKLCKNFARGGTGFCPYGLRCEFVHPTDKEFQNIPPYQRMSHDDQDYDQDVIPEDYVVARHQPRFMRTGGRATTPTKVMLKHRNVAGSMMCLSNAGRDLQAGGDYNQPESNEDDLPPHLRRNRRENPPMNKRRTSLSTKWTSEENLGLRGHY

ORF 73 = ORF 73 (Human herpesvirus 8, UniProt O40947); test: inhibitors of C-LANA binding to LBS DNA, dose response, biochemical, fluorescence polarization, cherry-picked samples (AID 504725); set-up: species or system Human gammaherpesvirus 8;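 note: fluorescence polarization of a labeled DNA duplex reporting LANA DNA binding; potency is for inhibitors that block LANA binding to the DNA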
ORF 73, sequence (O40947 whole entry): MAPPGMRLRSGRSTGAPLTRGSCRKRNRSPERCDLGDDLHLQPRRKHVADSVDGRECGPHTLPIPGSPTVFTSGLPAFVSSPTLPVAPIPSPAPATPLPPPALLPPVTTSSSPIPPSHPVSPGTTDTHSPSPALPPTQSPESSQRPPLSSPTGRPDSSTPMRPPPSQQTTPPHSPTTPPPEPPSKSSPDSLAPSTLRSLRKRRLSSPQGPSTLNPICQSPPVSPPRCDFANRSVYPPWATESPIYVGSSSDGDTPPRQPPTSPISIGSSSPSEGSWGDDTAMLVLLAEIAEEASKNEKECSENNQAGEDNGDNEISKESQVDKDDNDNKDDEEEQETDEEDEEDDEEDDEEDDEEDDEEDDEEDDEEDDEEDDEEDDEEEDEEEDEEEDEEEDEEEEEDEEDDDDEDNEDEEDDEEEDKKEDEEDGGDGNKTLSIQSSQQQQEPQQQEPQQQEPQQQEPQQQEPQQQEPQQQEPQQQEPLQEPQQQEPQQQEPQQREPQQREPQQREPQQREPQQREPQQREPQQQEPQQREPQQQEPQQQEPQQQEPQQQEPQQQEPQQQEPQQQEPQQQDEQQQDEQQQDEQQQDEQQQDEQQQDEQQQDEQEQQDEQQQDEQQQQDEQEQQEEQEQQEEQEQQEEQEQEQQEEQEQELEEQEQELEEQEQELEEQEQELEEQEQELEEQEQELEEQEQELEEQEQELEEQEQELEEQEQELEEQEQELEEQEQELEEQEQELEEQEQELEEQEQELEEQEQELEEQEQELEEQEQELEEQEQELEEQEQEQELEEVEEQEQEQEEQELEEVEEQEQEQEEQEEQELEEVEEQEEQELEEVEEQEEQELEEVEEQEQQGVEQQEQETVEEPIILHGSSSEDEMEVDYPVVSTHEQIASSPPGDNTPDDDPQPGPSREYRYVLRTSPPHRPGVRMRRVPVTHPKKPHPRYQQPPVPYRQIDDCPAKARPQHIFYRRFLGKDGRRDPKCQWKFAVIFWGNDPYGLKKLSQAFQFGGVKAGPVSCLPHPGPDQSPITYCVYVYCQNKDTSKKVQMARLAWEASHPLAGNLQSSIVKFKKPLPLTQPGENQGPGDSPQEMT

[8] = target: T8, Protein disulfide-isomerase (Homo sapiens, UniProt P07237); test: PDI inhibitors, insulin aggregation turbidity, dose response, biochemical, absorbance, cherry-picked samples (AID 602350); assay type: functional
T8 sequence (P07237 whole entry): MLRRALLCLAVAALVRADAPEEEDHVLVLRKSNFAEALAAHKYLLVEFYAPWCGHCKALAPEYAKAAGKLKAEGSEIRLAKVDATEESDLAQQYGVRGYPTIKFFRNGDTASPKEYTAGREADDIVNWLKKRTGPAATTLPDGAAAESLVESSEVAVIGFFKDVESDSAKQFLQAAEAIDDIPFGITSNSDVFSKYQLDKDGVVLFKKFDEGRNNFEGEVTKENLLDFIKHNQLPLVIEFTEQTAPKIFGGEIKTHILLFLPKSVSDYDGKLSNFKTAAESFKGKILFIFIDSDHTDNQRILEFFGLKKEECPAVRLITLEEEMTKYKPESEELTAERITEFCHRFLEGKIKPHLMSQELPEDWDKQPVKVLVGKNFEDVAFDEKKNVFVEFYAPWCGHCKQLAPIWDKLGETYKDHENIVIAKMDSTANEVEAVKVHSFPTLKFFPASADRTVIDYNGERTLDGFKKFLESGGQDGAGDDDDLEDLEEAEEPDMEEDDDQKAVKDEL

[9] = target: T8, Protein disulfide-isomerase; test: PDI inhibitors, insulin turbidity readout, dose response, biochemical, absorbance, cherry-picked samples, set 2 (AID 624274); assay type: functional
[10] = target: T9, Histone-lysine N-methyltransferase NSD2 (Homo sapiens, UniProt O96028); assay type: biochemical
T9 sequence (O96028 whole entry): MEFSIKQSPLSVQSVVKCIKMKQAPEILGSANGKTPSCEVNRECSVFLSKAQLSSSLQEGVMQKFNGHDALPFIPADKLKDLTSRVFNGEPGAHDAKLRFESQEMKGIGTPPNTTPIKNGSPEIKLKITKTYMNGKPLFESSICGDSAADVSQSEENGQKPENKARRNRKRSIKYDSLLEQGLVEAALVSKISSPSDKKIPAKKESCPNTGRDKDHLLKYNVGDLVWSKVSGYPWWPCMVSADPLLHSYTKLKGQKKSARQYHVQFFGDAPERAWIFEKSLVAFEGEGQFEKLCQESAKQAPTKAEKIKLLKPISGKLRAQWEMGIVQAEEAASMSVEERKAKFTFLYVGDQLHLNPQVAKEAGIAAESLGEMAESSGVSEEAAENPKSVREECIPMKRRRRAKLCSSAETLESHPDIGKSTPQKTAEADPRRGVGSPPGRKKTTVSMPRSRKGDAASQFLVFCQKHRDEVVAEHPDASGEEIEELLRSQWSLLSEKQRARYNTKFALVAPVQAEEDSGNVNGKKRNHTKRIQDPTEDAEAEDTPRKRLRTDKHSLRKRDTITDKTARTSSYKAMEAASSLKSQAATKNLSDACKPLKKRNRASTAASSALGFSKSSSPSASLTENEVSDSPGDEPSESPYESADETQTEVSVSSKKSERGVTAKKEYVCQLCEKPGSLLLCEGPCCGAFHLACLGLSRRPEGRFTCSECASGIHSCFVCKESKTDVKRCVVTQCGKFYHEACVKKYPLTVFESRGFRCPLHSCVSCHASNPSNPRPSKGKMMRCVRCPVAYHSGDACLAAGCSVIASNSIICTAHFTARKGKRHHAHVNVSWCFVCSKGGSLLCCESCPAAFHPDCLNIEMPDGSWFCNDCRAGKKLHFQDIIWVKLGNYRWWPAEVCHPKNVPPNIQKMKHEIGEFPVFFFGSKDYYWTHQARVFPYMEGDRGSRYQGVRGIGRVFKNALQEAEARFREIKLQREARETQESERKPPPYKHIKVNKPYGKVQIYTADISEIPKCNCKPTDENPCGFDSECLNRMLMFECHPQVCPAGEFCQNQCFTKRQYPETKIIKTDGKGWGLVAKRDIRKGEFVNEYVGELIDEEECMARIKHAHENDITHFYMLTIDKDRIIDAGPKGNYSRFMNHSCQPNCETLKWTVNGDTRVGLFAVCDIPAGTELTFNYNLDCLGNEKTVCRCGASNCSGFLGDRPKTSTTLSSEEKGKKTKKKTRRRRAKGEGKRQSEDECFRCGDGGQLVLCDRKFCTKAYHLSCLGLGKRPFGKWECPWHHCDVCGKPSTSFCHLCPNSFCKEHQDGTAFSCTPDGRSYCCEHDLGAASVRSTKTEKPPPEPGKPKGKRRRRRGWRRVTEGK

Compound | IC50 [1] | IC50 [2] | IC50 [3] | IC50 [4] | IC50 [5] | IC50 (Leucine aminopeptidase) | EC50 [6] | EC50 [7] | AC50 (ORF 73) | AC50 [8] | AC50 [9] | AC50 [10]
COc1ccc2cc3c(N)nn(C(=O)c4cccc(F)c4)c3nc2c1 | 8.49 µM (active) | 5.27 µM (active) | 16.9 µM (active) | 4.31 µM (active) | 60.2 µM (inactive) |  |  |  |  |  |  | 
O=C(O)CCCCCn1c(SCC(=O)c2ccc(O)c(O)c2)nc2ccsc2c1=O |  |  |  |  |  | 12.8 µM (active) | 270 µM (active) | 61.6 µM (active) | 2.89 µM (active) | < 0.009 µM (active) | 0.009 µM (active) | 7.35 µM (active)
